From ChEMBL document CHEMBL5385916, “Discovery of a novel series of pyridone amides as NaV1.8 inhibitors” (Bioorg Med Chem Lett, 2024) come the findings set out here.

pIC50: −log10 of the molar value. Active and inactive are the calls of the source. No cut-off for these calls is given here.

Series [1] has as its target T1, Sodium channel protein type 10 subunit alpha (Homo sapiens, UniProt Q9Y5Y9). Description: Binding affinity to Nav1.8 (unknown origin) expressed in HEK293T cells assessed as retention time by cell membrane chromatography analysis. It is filed as cell membranes.
Target sequence in this assay (Q9Y5Y9 whole entry, looked up): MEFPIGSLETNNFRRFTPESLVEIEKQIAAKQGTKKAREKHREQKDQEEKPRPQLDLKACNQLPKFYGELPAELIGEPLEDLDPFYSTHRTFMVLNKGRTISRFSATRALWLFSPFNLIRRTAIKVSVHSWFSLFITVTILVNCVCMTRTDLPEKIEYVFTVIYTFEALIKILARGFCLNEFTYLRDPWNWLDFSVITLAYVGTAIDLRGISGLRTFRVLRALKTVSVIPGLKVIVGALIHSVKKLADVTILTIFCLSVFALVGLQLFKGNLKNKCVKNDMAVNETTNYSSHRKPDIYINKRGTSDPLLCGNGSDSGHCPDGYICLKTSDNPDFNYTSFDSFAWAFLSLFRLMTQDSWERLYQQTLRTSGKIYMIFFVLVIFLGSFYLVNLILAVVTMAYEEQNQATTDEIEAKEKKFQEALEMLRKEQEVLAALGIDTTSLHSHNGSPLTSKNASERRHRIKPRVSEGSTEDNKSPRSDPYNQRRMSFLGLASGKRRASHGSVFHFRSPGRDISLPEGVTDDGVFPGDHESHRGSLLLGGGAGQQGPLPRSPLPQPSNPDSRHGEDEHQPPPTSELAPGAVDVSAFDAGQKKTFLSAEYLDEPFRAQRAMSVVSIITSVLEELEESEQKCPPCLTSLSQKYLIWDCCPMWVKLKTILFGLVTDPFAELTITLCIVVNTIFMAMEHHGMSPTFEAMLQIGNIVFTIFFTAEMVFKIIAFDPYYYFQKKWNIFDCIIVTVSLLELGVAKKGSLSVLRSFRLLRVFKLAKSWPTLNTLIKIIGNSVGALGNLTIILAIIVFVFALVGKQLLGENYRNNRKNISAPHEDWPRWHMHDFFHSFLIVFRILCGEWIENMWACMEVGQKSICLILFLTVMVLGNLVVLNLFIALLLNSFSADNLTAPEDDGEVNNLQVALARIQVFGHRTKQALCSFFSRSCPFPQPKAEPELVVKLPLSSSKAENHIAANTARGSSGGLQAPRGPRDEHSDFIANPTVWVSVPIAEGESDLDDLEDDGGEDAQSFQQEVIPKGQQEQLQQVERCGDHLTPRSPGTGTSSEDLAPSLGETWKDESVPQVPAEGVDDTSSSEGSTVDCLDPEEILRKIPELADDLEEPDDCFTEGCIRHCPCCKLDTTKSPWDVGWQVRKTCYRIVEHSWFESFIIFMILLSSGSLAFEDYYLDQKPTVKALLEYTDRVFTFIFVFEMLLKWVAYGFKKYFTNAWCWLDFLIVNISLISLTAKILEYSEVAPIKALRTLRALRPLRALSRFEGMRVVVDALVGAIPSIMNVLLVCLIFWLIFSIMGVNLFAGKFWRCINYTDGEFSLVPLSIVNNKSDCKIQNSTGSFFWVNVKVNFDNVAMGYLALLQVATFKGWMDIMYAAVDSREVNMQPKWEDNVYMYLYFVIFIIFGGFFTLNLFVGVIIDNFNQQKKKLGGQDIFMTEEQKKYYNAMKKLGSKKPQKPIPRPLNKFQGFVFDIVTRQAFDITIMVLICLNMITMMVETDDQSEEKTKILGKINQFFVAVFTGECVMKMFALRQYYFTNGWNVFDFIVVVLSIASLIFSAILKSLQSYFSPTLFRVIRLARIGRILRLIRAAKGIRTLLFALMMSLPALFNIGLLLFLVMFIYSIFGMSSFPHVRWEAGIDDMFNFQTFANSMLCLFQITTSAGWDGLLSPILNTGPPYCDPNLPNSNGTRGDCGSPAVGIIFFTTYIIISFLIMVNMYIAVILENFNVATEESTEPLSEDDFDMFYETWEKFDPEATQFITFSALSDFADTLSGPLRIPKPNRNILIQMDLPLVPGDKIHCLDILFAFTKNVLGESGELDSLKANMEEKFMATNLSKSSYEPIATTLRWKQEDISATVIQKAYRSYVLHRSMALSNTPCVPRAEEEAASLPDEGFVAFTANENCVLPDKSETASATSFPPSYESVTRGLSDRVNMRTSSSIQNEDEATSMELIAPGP
Series [2] is described as follows: Selectivity ratio of binding affinity to Nav1.8 (unknown origin) expressed in HEK293T cells assessed as retention time to binding affinity to Nav1.5 (unknown origin) expressed in HEK293T cells assessed as retention time. In kind it is cell-based.
Series [3] has as its target Sodium channel protein type 5 subunit alpha (Homo sapiens, UniProt Q14524). The series is described as follows: Binding affinity to Nav1.5 (unknown origin) expressed in HEK293T cells assessed as retention time by cell membrane chromatography analysis. In kind it is cell membranes.
Series [4] has as its system Mus musculus. Description: Analgesic activity in CFA-induced inflammatory pain mouse model assessed as paw withdrawal response to von frey stimuli at 100 microg/kg, ip. To be noted: dose 100.0 µg/kg. In kind it is functional, organism-based.
Series [5] has as its target T1, Sodium channel protein type 10 subunit alpha. Description: Inhibition of Nav1.8 (unknown origin) at 10 uM under half inaction state by whole-cell patch clamp analysis relative to control. Background: Patch clamp records ionic current or voltage across a cell membrane.
Target sequence in this assay (Q9Y5Y9 whole entry, looked up): as above
Series [6] shares this target. The series is described as follows: Inhibition of Nav1.8 (unknown origin) at 10 uM under resting state by whole-cell patch clamp analysis relative to control.
Target sequence in this assay (Q9Y5Y9 whole entry, looked up): as above
Series [7] has as its system Mus musculus. The series is described as follows: Analgesic activity in CFA-induced inflammatory pain mouse model assessed as paw withdrawal response to von frey stimuli at 100 microg/kg, ip measured for 9 hrs. In kind it is functional, organism-based. As to conditions: dose 100.0 µg/kg.
For series [8], the system named is Mus musculus. The series is described as follows: Analgesic activity in CFA-induced inflammatory pain mouse model assessed as paw withdrawal response to von frey stimuli at 100 microg/kg, ip measured for 5 hrs. It is filed as functional, organism-based. As to conditions: dose 100.0 µg/kg.
Series [9] relates to Mus musculus. The series is described as follows: Analgesic activity in CFA-induced inflammatory pain mouse model assessed as paw withdrawal response to von frey stimuli at 100 microg/kg, po administered for 8 days and measured upto 7 hrs. It is filed as functional, organism-based. To be noted: dose 100.0 µg/kg, time <= 199.0 hrs.
The test system of series [10] is Mus musculus. Description: Analgesic activity in chronic constriction injury mouse model assessed as paw withdrawal response to von frey stimuli at 100 microg/kg, ip administered for 8 days and measured upto 9 hrs. To be noted: dose 100.0 µg/kg, time <= 201.0 hrs. In kind it is functional, organism-based.
The nature of series [11]: Toxicity in mouse assessed as adverse effects at 100 microg/kg, ip administered for 8 days and measured upto 9 hrs. As to conditions: in vivo, 0.1 mg/kg, 201 h, dose 100 µg/kg. In kind it is organism-based.
In series [12] the test system is Mus musculus. The series is described as follows: Analgesic activity in chronic constriction injury mouse model assessed as fold increase in AUC at 100 microg/kg, ip administered for 8 days relative to model group. In kind it is functional. To be noted: dose 100 µg/kg, time 8 day.
Series [13] deals with Mus musculus. Description: Analgesic activity in chronic constriction injury mouse model at 100 microg/kg, ip administered for 10 to 14 days. It is filed as functional, organism-based. As to conditions: dose 100.0 µg/kg, time 10-14 day.
The target of series [14] is T1, Sodium channel protein type 10 subunit alpha. The series is described as follows: Inhibition of Nav1.8 in HEK293 cells under half inaction state. It is filed as cell-based.
Series [15] has the same target. The series is described as follows: Inhibition of Nav1.8 in HEK293 cells under resting state. In kind it is cell-based.
Series [16] deals with Mus musculus. Description: Analgesic activity in cold pain hypersensitivity mouse model at 100 microg/kg, ip measured for 8 days. It is filed as functional, organism-based. As to conditions: dose 100.0 µg/kg, time 8.0 day.

Chain of Sodium channel protein type 5 subunit alpha (Q14524 whole entry): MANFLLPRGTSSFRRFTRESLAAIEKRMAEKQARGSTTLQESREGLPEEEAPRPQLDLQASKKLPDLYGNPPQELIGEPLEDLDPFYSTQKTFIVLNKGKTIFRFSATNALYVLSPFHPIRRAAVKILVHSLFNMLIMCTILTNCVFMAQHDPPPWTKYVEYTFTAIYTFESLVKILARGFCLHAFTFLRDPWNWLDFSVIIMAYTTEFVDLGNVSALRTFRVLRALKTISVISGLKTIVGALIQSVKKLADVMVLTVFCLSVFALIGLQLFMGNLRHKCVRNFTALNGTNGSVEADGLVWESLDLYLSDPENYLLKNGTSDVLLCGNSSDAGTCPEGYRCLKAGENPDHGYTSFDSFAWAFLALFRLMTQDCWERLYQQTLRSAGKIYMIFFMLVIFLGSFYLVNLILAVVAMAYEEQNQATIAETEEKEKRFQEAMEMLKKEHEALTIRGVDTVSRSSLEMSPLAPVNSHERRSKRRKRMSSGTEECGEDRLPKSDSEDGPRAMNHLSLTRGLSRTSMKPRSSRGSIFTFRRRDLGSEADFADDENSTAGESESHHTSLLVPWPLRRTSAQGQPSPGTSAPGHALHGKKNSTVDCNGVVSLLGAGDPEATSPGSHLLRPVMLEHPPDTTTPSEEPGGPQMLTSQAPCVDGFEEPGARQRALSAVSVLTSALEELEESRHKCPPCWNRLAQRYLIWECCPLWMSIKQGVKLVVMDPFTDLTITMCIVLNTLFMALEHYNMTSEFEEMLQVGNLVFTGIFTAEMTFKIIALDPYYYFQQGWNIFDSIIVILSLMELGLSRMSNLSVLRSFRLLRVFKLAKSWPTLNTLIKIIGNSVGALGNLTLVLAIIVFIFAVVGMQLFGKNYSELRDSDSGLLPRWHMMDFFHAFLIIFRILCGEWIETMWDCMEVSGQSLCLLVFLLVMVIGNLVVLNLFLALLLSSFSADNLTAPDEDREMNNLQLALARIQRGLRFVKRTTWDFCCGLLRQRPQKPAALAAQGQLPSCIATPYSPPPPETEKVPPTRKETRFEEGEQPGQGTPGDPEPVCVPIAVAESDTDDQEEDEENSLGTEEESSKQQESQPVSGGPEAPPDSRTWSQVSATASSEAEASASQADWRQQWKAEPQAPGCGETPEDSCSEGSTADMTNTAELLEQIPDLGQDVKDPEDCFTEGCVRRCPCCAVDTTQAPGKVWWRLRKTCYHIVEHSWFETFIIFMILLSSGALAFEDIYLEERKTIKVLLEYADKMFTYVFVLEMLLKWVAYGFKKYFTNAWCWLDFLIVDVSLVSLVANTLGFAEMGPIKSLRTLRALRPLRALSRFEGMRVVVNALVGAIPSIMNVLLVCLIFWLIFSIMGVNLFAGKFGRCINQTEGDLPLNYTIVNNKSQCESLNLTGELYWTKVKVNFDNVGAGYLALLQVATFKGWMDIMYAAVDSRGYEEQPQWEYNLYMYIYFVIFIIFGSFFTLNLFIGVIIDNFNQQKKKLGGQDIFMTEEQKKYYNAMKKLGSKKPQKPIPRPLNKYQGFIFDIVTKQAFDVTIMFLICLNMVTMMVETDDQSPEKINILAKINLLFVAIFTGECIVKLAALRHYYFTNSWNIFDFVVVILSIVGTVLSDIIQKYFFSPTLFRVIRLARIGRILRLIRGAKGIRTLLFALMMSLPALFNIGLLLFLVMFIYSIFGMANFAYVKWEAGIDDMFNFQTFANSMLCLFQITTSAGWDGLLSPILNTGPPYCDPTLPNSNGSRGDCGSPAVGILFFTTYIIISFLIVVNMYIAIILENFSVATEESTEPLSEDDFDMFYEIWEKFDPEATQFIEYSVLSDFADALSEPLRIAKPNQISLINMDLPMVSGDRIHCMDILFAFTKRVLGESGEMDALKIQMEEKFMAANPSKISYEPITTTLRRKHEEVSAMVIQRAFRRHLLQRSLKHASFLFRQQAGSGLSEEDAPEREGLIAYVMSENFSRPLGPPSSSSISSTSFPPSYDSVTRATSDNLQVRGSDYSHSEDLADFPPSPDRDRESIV

Take `Cc1cc(F)ccc1Oc1cc(C(F)(F)F)ccc1C(=O)Nc1ccccc1`: the Retention time in series [1] turned out to be 5.8 min. In series [2], the Selectivity ratio turned out to be 0.79. The Retention_time in [3] was 7.3 min.
Consider `O=C(Nc1cc[nH]c(=O)c1)c1ccc(C(F)(F)F)cc1Oc1ccc(F)nc1`, for which the Retention time in [1] was 2.4 min. Further, the Selectivity ratio in series [2] turned out to be 0.92. In addition, the Retention_time in series [3] was 2.6 min.
For `CN1CCN(c2cc(C(F)(F)F)ccc2C(=O)Nc2cc[nH]c(=O)c2)CC1`, the Retention time in [1] is 53.8 min. Besides, the Selectivity ratio in series [2] turned out to be 41.4. Besides, the outcome in the series with Mus musculus [4] was Active. For the same compound, in [3], the Retention_time is 1.3 min.
`Cc1cc(F)ccc1Oc1cc(C(F)(F)F)ccc1C(=O)Nc1cccc(O)c1`: in series [1], the Retention time turned out to be 36.5 min. Besides, in series [2], the Selectivity ratio was 5.14. Further, the Retention_time in series [3] amounted to 7.1 min.
In the same order, the values of `O=C(Nc1cc[nH]c(=O)c1)c1ccc(C(F)(F)F)cc1OC1CC=CC1` are 10.1 min, 0.61 and 16.4 min.
For `COc1cc(NC(=O)c2ccc(C(F)(F)F)cc2Oc2ccc(F)cc2C)ccn1`, in that order: 6.1 min, 0.34 and 17.8 min.
As usually defined, the inhibition is the relative decrease from the control value, in per cent. For the compound `Cc1cc(F)ccc1Oc1cc(C(F)(F)F)ccc1C(=O)Nc1ccc2cc[nH]c2c1`, in [1], the Retention time is over 60 min. Moreover, the Selectivity ratio in [2] was found to be 1. Also, the outcome with Mus musculus [4] was Active. The Retention_time in series [3] was over 60 min. The inhibition in series [5] is 1.55%; in [6] it was -0.26%.
In the case of `O=C(Nc1cc[nH]c(=O)c1)c1ccc(C(F)(F)F)cc1OC1CCC(F)(F)CC1`, in [1], the Retention time was found to be 3.8 min. For the same compound, in series [2], the Selectivity ratio worked out at 0.66. The Retention_time in series [3] came out at 5.8 min.
For `Cc1cc(F)ccc1Oc1cc([N+](=O)[O-])ccc1C(=O)Nc1cc[nH]c(=O)c1`, in that order: 4.5 min, 0.52 and 4.5 min.
`COc1cc(NC(=O)c2ncc(C(F)(F)F)cc2Oc2ccc(F)cc2C)ccn1`: in [1], the Retention time is 22 min. The Selectivity ratio in series [2] came to 1.79. For the same compound, the outcome in the series on Mus musculus [7], in the series with Mus musculus [4] and in the series on Mus musculus [8] was Active. The Retention_time in series [3] is recorded as 12.3 min. In addition, the inhibition in series [5] was 84.5%; in [6], 82.5%.
Regarding `Cc1cc(F)ccc1Oc1cc(C(F)(F)F)ccc1C(=O)Nc1ccncc1`, the Retention time in [1] stood at 30 min. Moreover, the Selectivity ratio in series [2] was determined as 10. Besides, the result with Mus musculus [4] was Active. Also, the Retention_time in series [3] is given as 3 min.
The term pIC50 denotes the negative decadic logarithm of the IC50, by convention in mol/L. A high value points to a low IC50. Turning to `O=C(Nc1cc[nH]c(=O)c1)c1ccc(C(F)(F)F)cc1N1CCC(C(F)(F)F)CC1`, the outcome with Mus musculus [9], with Mus musculus [7], in the series with Mus musculus [4], in the series with Mus musculus [10], in the series with Mus musculus [13] and with Mus musculus [8] was Active. The result with Mus musculus [16] was Active. The Retention time in series [1] is 10.5 min. Moreover, in series [2], the Selectivity ratio is 0.9. The Retention_time in series [3] amounted to 11.7 min. For the same compound, the inhibition is 92.2% in series [5], 93.4% in series [6], “Dose-Dependent Effect” in [14] (dose 0.1-10 µM) and “Dose-Dependent Effect” in [15] (dose 0.1-10 µM). Besides, the Activity result in series [11] is listed as “Non-Toxic”. For the same compound, in the series with Mus musculus [12], the “fold change (FC)” value is 2. Also, the results for the negative-log IC50 (pIC50) in [14] and in series [15] were 6.33 and 6.29, respectively.
Consider `COc1cc(NC(=O)c2ccc([N+](=O)[O-])cc2Oc2ccc(F)cc2C)ccn1`, for which the Retention time in [1] was 4.6 min. The Selectivity ratio in series [2] was determined as 0.62. Besides, the Retention_time in series [3] came to 4.6 min.
Consider `Cc1cc(F)ccc1Oc1cc(C(F)(F)F)ccc1C(=O)NCc1cc[nH]c(=O)c1`, for which the Retention time in series [1] stood at 6 min. Also, the Selectivity ratio in series [2] was determined as 0.66. Besides, the Retention_time in series [3] is 9.1 min.
For the compound `O=C(Nc1cc[nH]c(=O)c1)c1ccc(C(F)(F)F)cc1Sc1ccc(F)cc1`, the Retention time in series [1] is 9.2 min. Further, the Selectivity ratio in series [2] was found to be 0.57. For the same compound, the outcome with Mus musculus [7], in the series on Mus musculus [4] and in the series on Mus musculus [8] was Active. For the same compound, the Retention_time in series [3] is on record as 16.1 min. Also, the inhibition in series [5] turned out to be 88.8%; in series [6], 87.5%.
On to `Cc1cc(F)ccc1Oc1cc(C(F)(F)F)ccc1C(=O)Nc1cc[nH]c(=O)c1`, for which the Retention time in [1] turned out to be 11.8 min. Also, in [2], the Selectivity ratio turned out to be 0.57. Moreover, in [3], the Retention_time was found to be 20.6 min.
For `Cc1cc(F)ccc1Oc1cc(C(F)(F)F)ccc1C(=O)NCc1ccccc1`, in that order: 56.1 min, 0.94 and over 60 min.
Consider `O=C(Nc1cc[nH]c(=O)c1)c1ccc(C(F)(F)F)cc1Oc1ccncc1`, for which, in [1], the Retention time was determined as 1.6 min. In addition, the Selectivity ratio in series [2] came out at 0.94. In [3], the Retention_time is listed as 1.7 min.
With `COc1cccc(NC(=O)c2ccc(C(F)(F)F)cc2Oc2ccc(F)cc2C)c1`, the Retention time in series [1] worked out at 4.6 min. Besides, the Selectivity ratio in series [2] is 0.63. The Retention_time in series [3] is reported as 7.3 min.
In the same order, the values of `O=C(Nc1cc[nH]c(=O)c1)c1ccc(C(F)(F)F)cc1Oc1ccccc1` are 4.7 min, 0.55 and 8.6 min.
